Data from PubChem BioAssay AID1845205 (Molecular Pharmacology Branch, DTP, NCI, 2023).

System: MPNST multicellular tumor spheroids, viability % test/control
Test: Anticancer human tumor MPNST cell line growth inhibition;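 further: spheroids exposed to agents for seven days after three days of growth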;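 on viability, T/C: luminescence signal used as surrogate for viable cell amount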
Settings: for viability, T/C: stronger effect = lower value
In short: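 Complex tumor spheroids combined malignant cells with endothelial cells and mesenchymal stem cells. DNA-damaging drugs and DNA repair inhibitors were tested alone and in combination, at half-log dilutions down from clinical Cmax (top 10 microM if Cmax unknown), 0.25% DMSO final.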

[1] = curve of first compound, second compound 0.003 µM
[2] = curve of first compound, second compound 0.00949 µM
[3] = curve of first compound, second compound 0.03 µM
[4] = curve of first compound, second compound 0.0949 µM
[5] = curve of first compound, second compound 0.3 µM
[6] = second compound 0.003 µM, first compound 0.0316 µM
[7] = second compound 0.003 µM, first compound 0.1 µM
[8] = second compound 0.003 µM, first compound 0.316 µM
[9] = second compound 0.003 µM, first compound 1 µM
[10] = second compound 0.003 µM, first compound 3.16 µM
[11] = second compound 0.003 µM, first compound 10 µM
[12] = second compound 0.00949 µM, first compound 0.0316 µM
[13] = second compound 0.00949 µM, first compound 0.1 µM
[14] = second compound 0.00949 µM, first compound 0.316 µM
[15] = second compound 0.00949 µM, first compound 1 µM
[16] = second compound 0.00949 µM, first compound 3.16 µM
[17] = second compound 0.00949 µM, first compound 10 µM
[18] = second compound 0.03 µM, first compound 0.0316 µM
[19] = second compound 0.03 µM, first compound 0.1 µM
[20] = second compound 0.03 µM, first compound 0.316 µM
[21] = second compound 0.03 µM, first compound 1 µM
[22] = second compound 0.03 µM, first compound 3.16 µM
[23] = second compound 0.03 µM, first compound 10 µM
[24] = second compound 0.0949 µM, first compound 0.0316 µM
[25] = second compound 0.0949 µM, first compound 0.1 µM
[26] = second compound 0.0949 µM, first compound 0.316 µM
[27] = second compound 0.0949 µM, first compound 1 µM
[28] = second compound 0.0949 µM, first compound 3.16 µM
[29] = second compound 0.0949 µM, first compound 10 µM
[30] = second compound 0.3 µM, first compound 0.0316 µM
[31] = second compound 0.3 µM, first compound 0.1 µM
[32] = second compound 0.3 µM, first compound 0.316 µM
[33] = second compound 0.3 µM, first compound 1 µM
[34] = second compound 0.3 µM, first compound 3.16 µM
[35] = second compound 0.3 µM, first compound 10 µM

Structure (SMILES): [2H]c1nc(C)nc([2H])c1-c1cc(NC[C@@H](C)c2cccc3c(C(=O)NC)ccnc23)ncn1 + CC[C@@]1(O)C(=O)OCc2c1cc1n(c2=O)Cc2cc3c(CN(C)C)c(O)ccc3nc2-1
- IC50 [1]: > 10000 nM
- IC50 [2]: > 10000 nM
- IC50 [3]: < 31.6 nM
- IC50 [4]: < 31.6 nM
- IC50 [5]: < 31.6 nM
- viability, T/C [6]: 96.5%
- viability, T/C [7]: 107%
- viability, T/C [8]: 93.5%
- viability, T/C [9]: 99.7%
- viability, T/C [10]: 92.4%
- viability, T/C [11]: 67.8%
- viability, T/C [12]: 74.5%
- viability, T/C [13]: 58.1%
- viability, T/C [14]: 77.8%
- viability, T/C [15]: 74.2%
- viability, T/C [16]: 49.4%
- viability, T/C [17]: 59.9%
- viability, T/C [18]: 39.3%
- viability, T/C [19]: 39.7%
- viability, T/C [20]: 37.6%
- viability, T/C [21]: 36.4%
- viability, T/C [22]: 37.8%
- viability, T/C [23]: 36.2%
- viability, T/C [24]: 38.5%
- viability, T/C [25]: 37.5%
- viability, T/C [26]: 39.4%
- viability, T/C [27]: 35.4%
- viability, T/C [28]: 34%
- viability, T/C [29]: 35.1%
- viability, T/C [30]: 33.1%
- viability, T/C [31]: 31%
- viability, T/C [32]: 29.9%
- viability, T/C [33]: 30.8%
- viability, T/C [34]: 28.1%
- viability, T/C [35]: 25.9%

Structure (SMILES): CC[C@@]1(O)C(=O)OCc2c1cc1n(c2=O)Cc2cc3c(CN(C)C)c(O)ccc3nc2-1
- viability, T/C (compound 0.03 µM): 53% [middle of 10 runs]
- viability, T/C (compound 0.3 µM): 41.1% [middle of 10 runs]
- IC50 (compound alone, run of 12/16/2019): 28.5 nM [middle of 5 runs]

Structure (SMILES): CC1COCCN1c1cc(-c2ccnn2C)c2ccnc(-c3ccn[nH]3)c2n1 (stereo not drawn) + Cn1nnc2c(C(N)=O)ncn2c1=O
- IC50 (curve of first compound, second compound 1 µM): 198 nM
- IC50 (curve of first compound, second compound 3.16 µM): 238 nM
- IC50 (curve of first compound, second compound 10 µM): 142 nM
- IC50 (curve of first compound, second compound 31.6 µM): 386 nM
- IC50 (curve of first compound, second compound 100 µM): 182 nM
- viability, T/C (second compound 1 µM, first compound 0.0316 µM): 62%
- viability, T/C (second compound 1 µM, first compound 0.1 µM): 55.8%
- viability, T/C (second compound 1 µM, first compound 0.316 µM): 45.8%
- viability, T/C (second compound 1 µM, first compound 1 µM): 39.7%
- viability, T/C (second compound 1 µM, first compound 3.16 µM): 34.1%
- viability, T/C (second compound 1 µM, first compound 10 µM): 35.3%
- viability, T/C (second compound 3.16 µM, first compound 0.0316 µM): 62.2%
- viability, T/C (second compound 3.16 µM, first compound 0.1 µM): 56.2%
- viability, T/C (second compound 3.16 µM, first compound 0.316 µM): 47.9%
- viability, T/C (second compound 3.16 µM, first compound 1 µM): 39.5%
- viability, T/C (second compound 3.16 µM, first compound 3.16 µM): 31%
- viability, T/C (second compound 3.16 µM, first compound 10 µM): 31.9%
- viability, T/C (second compound 10 µM, first compound 0.0316 µM): 64.2%
- viability, T/C (second compound 10 µM, first compound 0.1 µM): 52.2%
- viability, T/C (second compound 10 µM, first compound 0.316 µM): 45.2%
- viability, T/C (second compound 10 µM, first compound 1 µM): 38.2%
- viability, T/C (second compound 10 µM, first compound 3.16 µM): 35.9%
- viability, T/C (second compound 10 µM, first compound 10 µM): 34.4%
- viability, T/C (second compound 31.6 µM, first compound 0.0316 µM): 61.8%
- viability, T/C (second compound 31.6 µM, first compound 0.1 µM): 57.1%
- viability, T/C (second compound 31.6 µM, first compound 0.316 µM): 52.5%
- viability, T/C (second compound 31.6 µM, first compound 1 µM): 41.2%
- viability, T/C (second compound 31.6 µM, first compound 3.16 µM): 32.2%
- viability, T/C (second compound 31.6 µM, first compound 10 µM): 31.5%
- viability, T/C (second compound 100 µM, first compound 0.0316 µM): 63.6%
- viability, T/C (second compound 100 µM, first compound 0.1 µM): 54.4%
- viability, T/C (second compound 100 µM, first compound 0.316 µM): 46.1%
- viability, T/C (second compound 100 µM, first compound 1 µM): 37.1%
- viability, T/C (second compound 100 µM, first compound 3.16 µM): 30.2%
- viability, T/C (second compound 100 µM, first compound 10 µM): 31.8%

Structure (SMILES): CC(C)n1c(=O)n(C)c2cnc3cc(F)c(-c4ccc(OCCCN5CCCCC5)nc4)cc3c21 + CC[C@@]1(O)C(=O)OCc2c1cc1n(c2=O)Cc2cc3c(CN(C)C)c(O)ccc3nc2-1
- IC50 [1]: 6260 nM
- IC50 [2]: < 31.6 nM
- IC50 [3]: < 31.6 nM
- IC50 [4]: < 31.6 nM
- IC50 [5]: < 31.6 nM
- viability, T/C [6]: 65.9%
- viability, T/C [7]: 52%
- viability, T/C [8]: 79.9%
- viability, T/C [9]: 97.3%
- viability, T/C [10]: 59.6%
- viability, T/C [11]: 38.8%
- viability, T/C [12]: 46.8%
- viability, T/C [13]: 41.3%
- viability, T/C [14]: 50.5%
- viability, T/C [15]: 41.3%
- viability, T/C [16]: 50.3%
- viability, T/C [17]: 34.6%
- viability, T/C [18]: 35.4%
- viability, T/C [19]: 33.4%
- viability, T/C [20]: 38.9%
- viability, T/C [21]: 44.5%
- viability, T/C [22]: 44.1%
- viability, T/C [23]: 31.8%
- viability, T/C [24]: 34.6%
- viability, T/C [25]: 35.2%
- viability, T/C [26]: 35.5%
- viability, T/C [27]: 39.8%
- viability, T/C [28]: 37.8%
- viability, T/C [29]: 32.6%
- viability, T/C [30]: 30.2%
- viability, T/C [31]: 29%
- viability, T/C [32]: 31.4%
- viability, T/C [33]: 34.9%
- viability, T/C [34]: 36.5%
- viability, T/C [35]: 29.1%
